Results as given in patent publication US9447466B2 (NIPPON ZOKI PHARMACEUTICAL CO., LTD., priority 2010, dated 2016).

What was measured:
BDNF [1] = assay: Pharmacological Test 6: influence of intracellular signaling inhibitors on BDNF expression; format: cell-based, human; settings: SH-SY5Y cells; test substance 10 mNU/mL 24 hours; PD98059 10 μM, LY 294002 15 μM or SB 203580 0.5 μM added 30 minutes before completion; FIG. 7
Protocol: PD98059 (MEK inhibitor, 10 μM), LY 294002 (PI-3K inhibitor, 15 μM) or SB 203580 (p38 MAPK inhibitor, 0.5 μM) dissolved in a medium was added to a cultured product 30 minutes before completion of the cultivation. After that, the same as in the above Pharmacological Test 1, the extracted total RNA was subjected to a semi-quantitative RT-PCT, the PCR product was separated by agarose gel electrophoresis and the bands of BDNF and cyclophilin were visually detected.

ERK1/2 = assay: Inhibition of phosphorylation of ERK1/2 by MEK1/2 inhibitor; format: cell-based
BDNF [2] = assay: Pharmacological Test 8: influence on TrkB inhibition (BDNF expression, semi-quantitative RT-PCR); format: cell-based, human; settings: SH-SY5Y cells; test substance 10 mNU/mL 24 hours; K252a 500 nM or αTrkB 20 μg/mL added 30 minutes before completion; FIG. 9
Protocol: K252a (tyrosine kinase inhibitor, 500 nM) or rabbit IgG of human TrkB-specific antibody (αTrkB, 20 μg/mL) was added to the cultured product 30 minutes before completion of the cultivation. After that, the same as in the above Pharmacological Test 1, the extracted total RNA was subjected to a semi-quantitative RT-PCR, the PCR product was separated by agarose electrophoresis and the bands of BDNF and cyclophilin A were visually detected.

CREB [3] = assay: Inhibition of phosphorylation of CREB by p38MAPK inhibitor; format: cell-based
CREB [4] = assay: Pharmacological Test 5: effect to CREB pathway (immuno-blotting), phosphorylated CREB; format: cell-based; settings: SH-SY5Y cells; BDNF given from outside of the cells (human recombinant BDNF 50 pg/mL; 10 or 30 minutes)
From the text: (§1) Intracellular signaling molecules were detected by an immuno-blotting method using each of various specific antibodies produced to CREB (MAB 5432; Millipore), phosphorylated CREB (P-CREB: Clone 10E9; Millipore), P42/44 MAP kinase (ERK1/2; Cell Signaling Technology), phosphorylated P42/44 MAP kinase (P-MAPK: Tyr202/Tyr204; Cell Signaling Technology) and c-Fos (Gene Tex). […] After that, the cells were scraped off using a cell scraper (BD Bioscience), immediately washed with ice-cooled PBS and subjected to cytolysis according to a method of Mutoh, et al. (Proceedings of the National Academy of Sciences of the United States of America, vol. 92, pages 5087 to 5091, 1995). The cytolyzed product was subjected to an SDS-PAGE electrophoresis of 4 to 20% gel (ePAGEL; Atto Chemicals) and blotted to a PDVF (polyvinylidene fluoride) membrane. After said membrane was subjected to a blocking for 1 hour using Tris buffer physiological saline (TBS; 20 mM Tris-HCl, pH 7.5, 0.15M NaCl) containing 3% fat-free milk and 0.1% Tween 20 (TBS-T), a reaction with the primary antibody and the HRP-labeled secondary antibody was conducted in TBS-T for one hour at room temperature. Immuno-reactive bands of CREB, phosphorylated CREB, P42/44 MAP kinase, phosphorylated P42/44 MAP kinase and c-Fos were visually detected by a detection system by means of […] (ECL; GE Healthcare).

[5] = tested on: p42/44MAP kinase (ERK1/2); assay: Pharmacological Test 5: effect to CREB pathway (immuno-blotting), phosphorylated P42/44 MAP kinase; format: cell-based; settings: SH-SY5Y cells; BDNF given from outside of the cells (human recombinant BDNF 50 pg/mL; 10 or 30 minutes)
From the text: as §1

## COc1cccc(-c2cc(=O)c3ccccc3o2)c1N [PD98059]
BDNF [1]
  enhancement of BDNF expression by the test substance in presence of inhibitor: suppressed
ERK1/2
  phosphorylation of ERK1/2: inhibited

## COC(=O)[C@@]1(O)C[C@H]2O[C@]1(C)n1c3ccccc3c3c4c(c5c6ccccc6n2c5c31)C(=O)NC4 [Example K252a]
BDNF [2]
  BDNF expression enhanced by the test substance in presence of inhibitor or antibody: almost completely suppressed

## C[S+]([O-])c1ccc(-c2nc(-c3ccncc3)c(-c3ccc(F)cc3)[nH]2)cc1 (stereo not shown) [SB203580]
BDNF [1]
  enhancement of BDNF expression by the test substance in presence of inhibitor: suppressed
CREB [3]
  phosphorylation of CREB: inhibited

B1: BDNF: human recombinant BDNF (Peprotech) given from outside of the cells (protein, UniProt P23560 19-247, looked up)
Neurotrophic factor BDNF …: APMKEANIRGQGGLAYPGVRTHGTLESVNGPKAGSRGLTSLADTFEHVIEELLDEDQKVRPNEENNKDADLYTSRVMLSSQVPLEPPLLFLLEEYKNYLDAANMSMRVRRHSDPARRGELSVCDSISEWVTAADKKTAVDMSGGTVTVLEKVPVSKGQLKQYFYETKCNPMGYTKEGCRGIDKRHWNSQCRTTQSYVRALTMDSKKRIGWRFIRIDTSCVCTLTIKRGR
CREB [4]
  phosphorylation of CREB: enhanced
[5]
  phosphorylation of 42/44MAP kinase: enhanced
